Measurements: US20170119896A1, “TERMINALLY MODIFIED POLYMERS AND CONJUGATES THEREOF” (Mersana Therapeutics, Inc., priority 2012, published 2017)
pEC50: −log10 of the molar value.

Molecular target: T1, glucagon-like peptide-1 receptor (GLP1R CHO-K1 Gs overexpressing cells) (Homo sapiens, UniProt P43220)
T1 construct: host or cells: CHO-K1
Assay: DiscoveRx cAMP Hunter express GPCR Assay (cellular cAMP formation)
Assay type: cell-based
Settings: 30 min at 37° C., cAMP chemiluminescent signal, four-parameter curve fitting
Method: The activity of terminally modified PHF exendin conjugates were measured using DiscoveRx cAMP Hunter express GPCR Assay which determines the cellular formation of a second messenger such as cAMP. […] It binds to glucagon-like peptide-1 receptor 1-G-protein coupled receptor (GPCR). Following stimulation of this receptor, intracellular signaling pathways are activated that lead to the production of intracellular second messengers, such as cAMP. Free cAMP molecules from cell lysates compete for antibody binding with a labeled enzyme donor (ED)-cAMP conjugate, which contains a small peptide fragment of β-galactosidase. In the absence of free cAMP, the ED-cAMP conjugates are captured by the cAMP-specific antibody and are unavailable for complementation with the enzyme acceptor (EA), resulting in a low signal. In the presence of free cAMP, antibody sites are occupied, allowing the ED-cAMP conjugate to complement with EA, forming an active β-galactosidase enzyme; substrate hydrolysis by this enzyme produces a chemiluminescent signal. The signal generated is in direct proportion to the amount of free cAMP […]. […] Luminescent signal was measured using a SpectraMax M5 plate reader (Molecular Devices). […] EC50 values were determined from four-parameter curve fitting.

T1 sequence (P43220 24-463): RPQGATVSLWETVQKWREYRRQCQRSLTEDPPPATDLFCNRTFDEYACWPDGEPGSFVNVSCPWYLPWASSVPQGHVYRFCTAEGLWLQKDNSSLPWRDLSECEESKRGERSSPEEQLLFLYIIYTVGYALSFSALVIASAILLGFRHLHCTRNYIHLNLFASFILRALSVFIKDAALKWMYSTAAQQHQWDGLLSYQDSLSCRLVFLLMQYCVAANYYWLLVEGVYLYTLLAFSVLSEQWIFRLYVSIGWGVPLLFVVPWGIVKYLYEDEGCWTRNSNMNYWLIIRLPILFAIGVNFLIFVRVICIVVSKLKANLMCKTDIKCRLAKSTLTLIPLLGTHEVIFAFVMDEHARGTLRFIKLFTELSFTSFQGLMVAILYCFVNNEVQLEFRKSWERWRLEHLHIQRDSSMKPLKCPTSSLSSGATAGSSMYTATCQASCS

For “50 kDa PHF-6-maleimido hexanamide-Exendin-4-Cys (i.e., (Exendin-4-Cys)-(N-(2-maleimido)propanamido)propyl)-ethylamino-50 kDa PHF) [Example 15]”, the pEC50 was 8.73.
